# The source made the active and inactive calls. The rule behind the calls is not given here.
# System: CCRIS mutagenicity, Ames/micronucleus/aberration tests
# Test: CCRIS mutagenicity studies
# [1] = Test System: AMES SALMONELLA TYPHIMURIUM, Strain/Indicator: TA98, Metabolic Activation: NONE, Method: STANDARD PLATE
# [2] = Test System: AMES SALMONELLA TYPHIMURIUM, Strain/Indicator: TA98, Metabolic Activation: RAT, LIVER, S-9, AROCLOR 1254, Method: STANDARD PLATE
# [3] = Test System: AMES SALMONELLA TYPHIMURIUM, Strain/Indicator: TA100, Metabolic Activation: NONE, Method: STANDARD PLATE
# [4] = Test System: AMES SALMONELLA TYPHIMURIUM, Strain/Indicator: TA100, Metabolic Activation: RAT, LIVER, S-9, AROCLOR 1254, Method: STANDARD PLATE
# [5] = Test System: AMES SALMONELLA TYPHIMURIUM, Strain/Indicator: TA1535, Metabolic Activation: NONE, Method: STANDARD PLATE
# [6] = Test System: AMES SALMONELLA TYPHIMURIUM, Strain/Indicator: TA1535, Metabolic Activation: RAT, LIVER, S-9, AROCLOR 1254, Method: STANDARD PLATE
# [7] = Test System: AMES SALMONELLA TYPHIMURIUM, Strain/Indicator: TA1537, Metabolic Activation: NONE, Method: STANDARD PLATE
# [8] = Test System: AMES SALMONELLA TYPHIMURIUM, Strain/Indicator: TA1537, Metabolic Activation: RAT, LIVER, S-9, AROCLOR 1254, Method: STANDARD PLATE
# [9] = Test System: AMES SALMONELLA TYPHIMURIUM, Strain/Indicator: TA1538, Metabolic Activation: NONE, Method: STANDARD PLATE
# [10] = Test System: AMES SALMONELLA TYPHIMURIUM, Strain/Indicator: TA1538, Metabolic Activation: RAT, LIVER, S-9, AROCLOR 1254, Method: STANDARD PLATE
# [11] = Test System: MOUSE LYMPHOMA, Strain/Indicator: L5178Y (TK+/TK-), Metabolic Activation: NONE, Method: SUSPENSION/PLATE
# [12] = Test System: AMES SALMONELLA TYPHIMURIUM, Strain/Indicator: TA100, Metabolic Activation: NONE, Method: PREINCUBATION
# [13] = Test System: AMES SALMONELLA TYPHIMURIUM, Strain/Indicator: TA98, Metabolic Activation: NONE, Method: PREINCUBATION
compound,measurement,setting,value
OCc1cc2ccc3cccnc3c2[nH]1,mutagenic call,[1],inactive; negative
same,mutagenic call,"Test System: E. COLI, Strain/Indicator: WP2 TM9, Metabolic Activation: NONE, Method: STANDARD PLATE",inactive; negative
CC(CN1CC(=O)NC(=O)C1)N1CC(=O)NC(=O)C1 (stereo not drawn),mutagenic call,[1],inactive; negative
same,mutagenic call,[2],inactive; negative
same,mutagenic call,[3],inactive; negative
same,mutagenic call,[4],inactive; negative
same,mutagenic call,[5],inactive; negative
same,mutagenic call,[6],inactive; negative
same,mutagenic call,[7],inactive; negative
same,mutagenic call,[8],inactive; negative
same,mutagenic call,[9],inactive; negative
same,mutagenic call,[10],inactive; negative
same,mutagenic call,"Test System: CHINESE HAMSTER V-79, Strain/Indicator: V-79/8-AZAGUANINE, Metabolic Activation: NONE, Method: STANDARD PLATE",active; positive
same,mutagenic call,[11],active; positive
Cl[C@@H]1O[C@@H]1CBr,mutagenic call,[12],active; positive
Cc1ccc([N+](=O)[O-])cc1C,mutagenic call,[13],inactive; negative
same,mutagenic call,"Test System: AMES SALMONELLA TYPHIMURIUM, Strain/Indicator: TA98, Metabolic Activation: RAT, LIVER, S-9, KANECHLOR 500, Method: PREINCUBATION",inactive; negative
same,mutagenic call,[12],inactive; negative
O=c1[nH][nH]c(=O)c2cc([N+](=O)[O-])ccc12,mutagenic call,"Test System: AMES SALMONELLA TYPHIMURIUM, Strain/Indicator: TA98, Metabolic Activation: HAMSTER, LIVER, S-9, AROCLOR 1254 (30%), Method: PREINCUBATION",active; positive
same,mutagenic call,[13],active; positive
same,mutagenic call,"Test System: AMES SALMONELLA TYPHIMURIUM, Strain/Indicator: TA98, Metabolic Activation: RAT, LIVER, S-9, AROCLOR 1254 (30%), Method: PREINCUBATION",active; positive
same,mutagenic call,"Test System: AMES SALMONELLA TYPHIMURIUM, Strain/Indicator: TA100, Metabolic Activation: HAMSTER, LIVER, S-9, AROCLOR 1254 (30%), Method: PREINCUBATION",active; positive
same,mutagenic call,[12],active; positive
same,mutagenic call,"Test System: AMES SALMONELLA TYPHIMURIUM, Strain/Indicator: TA100, Metabolic Activation: RAT, LIVER, S-9, AROCLOR 1254 (30%), Method: PREINCUBATION",inactive; negative
CC/C(C)=N\O,mutagenic call,"Test System: AMES SALMONELLA TYPHIMURIUM, Strain/Indicator: TA97, Metabolic Activation: HAMSTER LIVER S-9, AROCLOR 1254, 30%, Method: PREINCUBATION",inactive; negative
same,mutagenic call,"Test System: AMES SALMONELLA TYPHIMURIUM, Strain/Indicator: TA97, Metabolic Activation: NONE, Method: PREINCUBATION",inactive; negative
same,mutagenic call,"Test System: AMES SALMONELLA TYPHIMURIUM, Strain/Indicator: TA97, Metabolic Activation: RAT LIVER S-9, AROCLOR 1254, 30%, Method: PREINCUBATION",inactive; negative
same,mutagenic call,"Test System: AMES SALMONELLA TYPHIMURIUM, Strain/Indicator: TA98, Metabolic Activation: HAMSTER LIVER S-9, AROCLOR 1254, 30%, Method: DESICCATOR",inactive; negative
same,mutagenic call,"Test System: AMES SALMONELLA TYPHIMURIUM, Strain/Indicator: TA98, Metabolic Activation: HAMSTER LIVER S-9, AROCLOR 1254, 30%, Method: PREINCUBATION",inactive; negative
same,mutagenic call,"Test System: AMES SALMONELLA TYPHIMURIUM, Strain/Indicator: TA98, Metabolic Activation: HAMSTER, LIVER, S-9, AROCLOR 1254, Method: STANDARD PLATE",inactive; negative
same,mutagenic call,"Test System: AMES SALMONELLA TYPHIMURIUM, Strain/Indicator: TA98, Metabolic Activation: NONE, Method: DESICCATOR",inactive; negative
same,mutagenic call,[13],inactive; negative
same,mutagenic call,[1],inactive; negative
same,mutagenic call,"Test System: AMES SALMONELLA TYPHIMURIUM, Strain/Indicator: TA98, Metabolic Activation: RAT LIVER S-9, AROCLOR 1254, 30%, Method: DESICCATOR",inactive; negative
same,mutagenic call,"Test System: AMES SALMONELLA TYPHIMURIUM, Strain/Indicator: TA98, Metabolic Activation: RAT LIVER S-9, AROCLOR 1254, 30%, Method: PREINCUBATION",inactive; negative
same,mutagenic call,[2],inactive; negative
same,mutagenic call,"Test System: AMES SALMONELLA TYPHIMURIUM, Strain/Indicator: TA100, Metabolic Activation: HAMSTER LIVER S-9, AROCLOR 1254, 30%, Method: DESICCATOR",inactive; negative
same,mutagenic call,"Test System: AMES SALMONELLA TYPHIMURIUM, Strain/Indicator: TA100, Metabolic Activation: HAMSTER LIVER S-9, AROCLOR 1254, 30%, Method: PREINCUBATION",inactive; negative
same,mutagenic call,"Test System: AMES SALMONELLA TYPHIMURIUM, Strain/Indicator: TA100, Metabolic Activation: HAMSTER, LIVER, S-9, AROCLOR 1254, Method: STANDARD PLATE",inactive; negative
same,mutagenic call,"Test System: AMES SALMONELLA TYPHIMURIUM, Strain/Indicator: TA100, Metabolic Activation: NONE, Method: DESICCATOR",inactive; negative
same,mutagenic call,[12],inactive; negative
same,mutagenic call,[3],inactive; negative
same,mutagenic call,"Test System: AMES SALMONELLA TYPHIMURIUM, Strain/Indicator: TA100, Metabolic Activation: RAT LIVER S-9, AROCLOR 1254, 30%, Method: DESICCATOR",inactive; negative
same,mutagenic call,"Test System: AMES SALMONELLA TYPHIMURIUM, Strain/Indicator: TA100, Metabolic Activation: RAT LIVER S-9, AROCLOR 1254, 30%, Method: PREINCUBATION",inactive; negative
same,mutagenic call,[4],inactive; negative
same,mutagenic call,"Test System: AMES SALMONELLA TYPHIMURIUM, Strain/Indicator: TA1535, Metabolic Activation: HAMSTER LIVER S-9, AROCLOR 1254, 30%, Method: PREINCUBATION",active; positive
same,mutagenic call,"Test System: AMES SALMONELLA TYPHIMURIUM, Strain/Indicator: TA1535, Metabolic Activation: HAMSTER, LIVER, S-9, AROCLOR 1254, Method: STANDARD PLATE",inactive; negative
same,mutagenic call,"Test System: AMES SALMONELLA TYPHIMURIUM, Strain/Indicator: TA1535, Metabolic Activation: NONE, Method: PREINCUBATION",inactive; negative
same,mutagenic call,[5],inactive; negative
same,mutagenic call,"Test System: AMES SALMONELLA TYPHIMURIUM, Strain/Indicator: TA1535, Metabolic Activation: RAT LIVER S-9, AROCLOR 1254, 30%, Method: PREINCUBATION",inactive; negative
same,mutagenic call,[6],inactive; negative
same,mutagenic call,"Test System: AMES SALMONELLA TYPHIMURIUM, Strain/Indicator: TA1537, Metabolic Activation: HAMSTER, LIVER, S-9, AROCLOR 1254, Method: STANDARD PLATE",inactive; negative
same,mutagenic call,[7],inactive; negative
same,mutagenic call,[8],inactive; negative
same,mutagenic call,"Test System: AMES SALMONELLA TYPHIMURIUM, Strain/Indicator: TA1538, Metabolic Activation: HAMSTER, LIVER, S-9, AROCLOR 1254, Method: STANDARD PLATE",inactive; negative
same,mutagenic call,[9],inactive; negative
same,mutagenic call,[10],inactive; negative
same,mutagenic call,[11],active; positive. reevaluation of results: positive
same,mutagenic call,"Test System: MOUSE LYMPHOMA, Strain/Indicator: L5178Y (TK+/TK-), Metabolic Activation: RAT, LIVER, S-9, AROCLOR 1254, Method: SUSPENSION/PLATE",inactive; negative. reevaluation of results: negative
O=[N+]([O-])N(c1ccccn1)S(=O)(=O)c1ccccc1,mutagenic call,[13],inactive; negative
same,mutagenic call,"Test System: AMES SALMONELLA TYPHIMURIUM, Strain/Indicator: TA98, Metabolic Activation: RAT, LIVER, S-9, AROCLOR 1254, Method: PREINCUBATION",inactive; negative
same,mutagenic call,[12],inactive; negative
same,mutagenic call,"Test System: AMES SALMONELLA TYPHIMURIUM, Strain/Indicator: TA100, Metabolic Activation: RAT, LIVER, S-9, AROCLOR 1254, Method: PREINCUBATION",inactive; negative
CN(CCO)C(=O)Nc1ccc(Cl)c(Cl)c1,mutagenic call,[1],inactive; negative
same,mutagenic call,[2],inactive; negative
same,mutagenic call,[3],inactive; negative
same,mutagenic call,[4],inactive; negative
same,mutagenic call,[5],inactive; negative
same,mutagenic call,[6],inactive; negative
same,mutagenic call,[7],inactive; negative
same,mutagenic call,[8],inactive; negative
same,mutagenic call,[9],inactive; negative
same,mutagenic call,[10],inactive; negative
